In general, IC50 refers to the concentration that gives 50% inhibition.

One assay has as its target T1, SCD1 (Homo sapiens, UniProt O00767).
T1 construct: host or cells: Saccharomyces cerevisiae ole1Δ strain (W303 pdr1Δ pdr3Δ background), plasmid pRS316, TDH3 promoter
T1 sequence (O00767 1-359): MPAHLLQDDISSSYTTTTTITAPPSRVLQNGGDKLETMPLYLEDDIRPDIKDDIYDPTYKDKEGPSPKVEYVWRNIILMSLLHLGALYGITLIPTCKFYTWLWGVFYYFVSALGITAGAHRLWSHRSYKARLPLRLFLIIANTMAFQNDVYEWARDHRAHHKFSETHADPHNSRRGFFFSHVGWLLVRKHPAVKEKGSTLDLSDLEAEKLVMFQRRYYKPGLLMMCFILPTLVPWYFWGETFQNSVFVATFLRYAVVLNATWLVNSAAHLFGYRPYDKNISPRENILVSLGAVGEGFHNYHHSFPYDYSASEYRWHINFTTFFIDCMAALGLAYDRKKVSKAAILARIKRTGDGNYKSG
The assay can be described thus: Growth inhibition of yeast (ole1Δ) expressing human SCD1 as the sole desaturase. The format is cell-based. The note with it: yeast strain with SCD1 plasmid, OD600 growth read at 40 h; read-out: SCD1 IC50.

For the next assay, the target named is T2, SCD5 (Homo sapiens, UniProt Q86SK9).
T2 construct: host or cells: Saccharomyces cerevisiae ole1Δ strain (W303 pdr1Δ pdr3Δ background), plasmid pRS316, TDH3 promoter
T2 sequence (Q86SK9 1-330): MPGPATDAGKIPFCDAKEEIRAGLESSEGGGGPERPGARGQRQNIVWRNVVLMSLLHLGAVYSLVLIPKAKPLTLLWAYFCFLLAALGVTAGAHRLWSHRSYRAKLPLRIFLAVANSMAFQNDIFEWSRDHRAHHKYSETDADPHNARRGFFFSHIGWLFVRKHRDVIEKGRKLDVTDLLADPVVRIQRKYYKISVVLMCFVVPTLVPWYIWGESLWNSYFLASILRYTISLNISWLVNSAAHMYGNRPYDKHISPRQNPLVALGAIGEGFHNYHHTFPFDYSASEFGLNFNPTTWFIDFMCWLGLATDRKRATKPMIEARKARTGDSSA
Description: Growth inhibition of yeast (ole1Δ) expressing human SCD5 as the sole desaturase. The format is cell-based. Particulars: yeast strain with SCD5 plasmid, OD600 growth read at 40 h; read-out: SCD5 IC50.

`Cn1nc(NC(=O)N2CCC(NCc3cc(F)cc(F)c3)CC2)ccc1=O` [Compound 104, 4-(3,5-difluorobenzylamino)-N-(1-methyl-6-oxo-1,6-dihydropyridazin-3-yl)piperidine-1-carboxamide]: the half-maximal inhibitory concentration (IC50) on SCD1 and on SCD5 was greater than 45000 nM each time.
As for `Cn1nc(NC(=O)N2CCC(NCc3ccccc3C(F)(F)F)CC2)ccc1=O` [Compound 105, N-(1-methyl-6-oxo-1,6-dihydropyridazin-3-yl)-4-(2-(trifluoromethyl)benzylamino) piperidine-1-carboxamide], the IC50 at SCD1 and on SCD5 was greater than 45000 nM each time.
For the molecule `Cn1nc(OC(=O)N2CCC(Oc3ccc(F)c(F)c3)CC2)ccc1=O` [Compound 107], the IC50 at SCD1 is greater than 45000 nM; at SCD5 it was 7930 nM.
For `Cn1nc(OC(=O)N2CCC(Oc3cc(F)cc(F)c3)CC2)ccc1=O` [Compound 108], the IC50 came out at 9000 nM on SCD1 and 5010 nM on SCD5.
Turning to `Cn1nc(OC(=O)N2CCC(Cc3cc(F)cc(F)c3)CC2)ccc1=O` [Compound 109], the values for the IC50 on SCD1 and at SCD5 were greater than 45000 nM and 4850 nM, respectively.
Turning to `Cn1nc(-c2nc(N3CCC(Oc4cc(F)cc(F)c4)CC3)no2)ccc1=O` [Compound 111, 6-(3-(4-(3,5-difluorophenoxy)piperidin-1-yl)-1,2,4-oxadiazol-5-yl)-2-methylpyridazin-3(2H)-one], the IC50 was greater than 45000 nM at SCD1 and 610 nM at SCD5.
With `Cn1nc(-c2nc(N3CCC(Oc4cccc(F)c4Cl)CC3)no2)ccc1=O` [Compound 112, 6-(3-(4-(2-chloro-3-fluorophenoxy)piperidin-1-yl)-1,2,4-oxadiazol-5-yl)-2-methylpyridazin-3(2H)-one], the values for the IC50 at SCD1 and on SCD5 were 500 nM and 600 nM, respectively.
Turning to `Cn1nc(-c2nc(N3CCC(Cc4ccccc4)CC3)no2)ccc1=O` [Compound 113, 6-(3-(4-benzylpiperidin-1-yl)-1,2,4-oxadiazol-5-yl)-2-methylpyridazin-3(2H)-one], the IC50 on SCD1 was greater than 45000 nM; on SCD5 it was 380 nM.
The corresponding values for `Cn1nc(-c2nc(N3CCC(Cc4cc(F)cc(F)c4)CC3)no2)ccc1=O` [Compound 115, 6-(3-(4-(3,5-difluorobenzyl)piperidin-1-yl)-1,2,4-oxadiazol-5-yl)-2-methylpyridazin-3(2H)-one] are 450 nM and 10 nM.
Taken in the same sequence, the figures for `Cn1nc(-c2nc(N3CCC(Cc4ccc(F)c(F)c4)CC3)no2)ccc1=O` [Compound 116, 6-(3-(4-(3,4-difluorobenzyl)piperidin-1-yl)-1,2,4-oxadiazol-5-yl)-2-methylpyridazin-3(2H)-one] were 860 nM and 10 nM.
The corresponding values for `Cn1nc(-c2nc(N3CCC(Cc4cc(Cl)cc(C#N)c4)CC3)no2)ccc1=O` [Compound 117, 3-chloro-5-((1-(5-(1-methyl-6-oxo-1,6-dihydropyridazin-3-yl)-1,2,4-oxadiazol-3-yl)piperidin-4-yl)methyl)benzonitrile] are 2000 nM and 30 nM.
Consider `Cn1nc(-c2nnc(N3CCC(Cc4cc(F)cc(F)c4)CC3)o2)ccc1=O` [Compound 118, 6-(5-(4-(3,5-difluorobenzyl)piperidin-1-yl)-1,3,4-oxadiazol-2-yl)-2-methylpyridazin-3(2H)-one], for which the IC50 at SCD1 amounted to 26300 nM; at SCD5, 70 nM.
With `Cn1nc(-c2nnc(N3CCC(Cc4cccc(F)c4)CC3)o2)ccc1=O` [Compound 119, 6-(5-(4-(3-fluorobenzyl)piperidin-1-yl)-1,3,4-oxadiazol-2-yl)-2-methylpyridazin-3(2H)-one], the IC50 on SCD1 is greater than 45000 nM; on SCD5 it was 160 nM.
Taken in the same sequence, the figures for `Cn1nc(-c2nnc(N3CCC(Cc4cc(F)cc(F)c4)CC3)s2)ccc1=O` [Compound 121, 6-(5-(4-(3,5-difluorobenzyl)piperidin-1-yl)-1,3,4-thiadiazol-2-yl)-2-methylpyridazin-3(2H)-one] were 180 nM and 10 nM.
Taken in the same sequence, the figures for `Cn1nc(-c2noc(N3CCC(Cc4cc(F)cc(F)c4)CC3)n2)ccc1=O` [Compound 122, 6-(5-(4-(3,5-difluorobenzyl)piperidin-1-yl)-1,2,4-oxadiazol-3-yl)-2-methylpyridazin-3(2H)-one] were 13600 nM and 1730 nM.
Take `Cn1nc(-c2noc(N3CCC(Cc4ccc(F)c(F)c4)CC3)n2)ccc1=O` [Compound 123, 6-(5-(4-(3,4-difluorobenzyl)piperidin-1-yl)-1,2,4-oxadiazol-3-yl)-2-methylpyridazin-3(2H)-one]: the IC50 on SCD1 turned out to be 4900 nM; on SCD5, 1400 nM.
The corresponding values for `Cn1nc(-c2cnc(N3CCC(Cc4cc(F)cc(F)c4)CC3)o2)ccc1=O` [Compound 124, 6-(2-(4-(3,5-difluorobenzyl)piperidin-1-yl)oxazol-5-yl)-2-methylpyridazin-3(2H)-one] are 26000 nM and 140 nM.
The corresponding values for `CCn1nc(NC(=O)N2CCC(Cc3cc(F)cc(F)c3)CC2)ccc1=O` [Compound 125, 4-(3,5-difluorobenzyl)-N-(1-ethyl-6-oxo-1,6-dihydropyridazin-3-yl)piperidine-1-carboxamide] are 4960 nM and 1150 nM.
Taken in the same sequence, the figures for `Cc1cc(NC(=O)N2CCC(Oc3cc(F)cc(F)c3)CC2)nn(C)c1=O` [Compound 126] were 40 nM and 40 nM.
Regarding `Cc1cc(NC(=O)N2CCC(Oc3ccc(F)c(F)c3)CC2)nn(C)c1=O` [Compound 127], the IC50 on SCD1 and at SCD5 was 200 nM throughout.
`Cc1cc(NC(=O)N2CCC(Cc3cc(F)cc(F)c3)CC2)nn(C)c1=O` [Compound 128]: the IC50 was 50 nM on SCD1 and 20 nM on SCD5.
For `Cc1cc(NC(=O)N2CCC(Cc3ccc(F)c(F)c3)CC2)nn(C)c1=O` [Compound 129], the IC50 came to 310 nM on SCD1 and 80 nM at SCD5.
In the case of `Cn1nc(NC(=O)N2CCN(Cc3cccc(Cl)c3)CC2)ccc1=O` [Compound 130, 4-(3-chlorobenzyl)-N-(1-methyl-6-oxo-1,6-dihydropyridazin-3-yl)piperazine-1-carboxamide], the IC50 is greater than 45000 nM on SCD1 and 15800 nM on SCD5.
Taken in the same sequence, the figures for `Cn1nc(NC(=O)N2CCC=C(c3ccc(Cl)cc3)CC2)ccc1=O` [Compound 133, 4-(4-chlorophenyl)-N-(1-methyl-6-oxo-1,6-dihydropyridazin-3-yl)-2,3,6,7-tetrahydro-1H-azepine-1-carboxamide] were greater than 45000 nM and greater than 45000 nM.
Taken in the same sequence, the figures for `Cn1nc(NC(=O)N2CC=C(c3ccc(Cl)cc3)CCC2)ccc1=O` [Compound 134, 5-(4-chlorophenyl)-N-(1-methyl-6-oxo-1,6-dihydropyridazin-3-yl)-2,3,4,7-tetrahydro-1H-azepine-1-carboxamide] were greater than 45000 nM and greater than 45000 nM.

The record behind these values is patent US20250034125A1, “COMPOUNDS AND USES THEREOF” (JANSSEN PHARMACEUTICA NV, priority 2019, published 2025).
